Legend:
Assay type in all cases: cell-based
ratP2X7 = target: T1, ratP2X7 (Rattus norvegicus, UniProt Q64663); experiment: P2X7 channel calcium-influx assay (Fluo-8, FLIPR TETRA), rat P2X7; conditions: HEK-293 cells stably transfected with P2X7; Bz-ATP at EC80; low divalent cation buffer; read-out: ratP2X7 (activity range)
T1 construct: expressed in transfected cells; host or cells: HEK-293
T1 sequence (Q64663 1-595): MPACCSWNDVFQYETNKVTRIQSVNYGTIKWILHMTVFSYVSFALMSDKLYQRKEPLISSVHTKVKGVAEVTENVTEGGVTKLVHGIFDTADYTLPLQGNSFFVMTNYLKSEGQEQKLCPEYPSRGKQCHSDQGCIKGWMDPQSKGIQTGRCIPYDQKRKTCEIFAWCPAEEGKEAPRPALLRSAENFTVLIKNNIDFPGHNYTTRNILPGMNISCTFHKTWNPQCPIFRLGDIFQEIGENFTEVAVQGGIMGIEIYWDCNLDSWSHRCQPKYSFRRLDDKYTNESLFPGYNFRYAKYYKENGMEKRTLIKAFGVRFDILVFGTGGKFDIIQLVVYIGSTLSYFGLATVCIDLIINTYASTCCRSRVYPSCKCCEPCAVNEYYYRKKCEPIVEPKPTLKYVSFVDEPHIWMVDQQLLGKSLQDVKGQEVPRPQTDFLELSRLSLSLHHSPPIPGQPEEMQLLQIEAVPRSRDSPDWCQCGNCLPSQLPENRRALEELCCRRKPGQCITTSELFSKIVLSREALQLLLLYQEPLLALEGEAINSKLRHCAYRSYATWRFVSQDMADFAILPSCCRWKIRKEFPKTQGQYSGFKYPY
Experimental: (§1) Extracellular binding of Bz-ATP to P2X7 receptor opens the channel and allows Ca^2+ influx into the cells. This Ca^2+ entry was measured in HEK-293 cells stably transfected with P2X7 receptor using Screen Quest™ Fluo-8 No Wash Calcium Assay Kit (AAt Bioquest®, cat. 36316). Once inside the cell, the lipophilic blocking groups of Fluo-8 are cleaved by non-specific cell esterases, resulting in a negatively-charged fluorescent dye that stays inside cells. Its fluorescence increases upon binding to calcium. When HEK-293/P2X7 cells are stimulated with Bz-ATP, Ca^2+ enters the cells and the fluorescence of Fluo-8 NW increases. The dye has an absorption spectrum compatible with excitation at 488 nm by argon laser sources and its emission wavelength is in the range of 515-575 nm.
(§2) HEK-293 cells stably transfected with P2X7 receptor were seeded overnight in growth medium at 10,000 to 20,000 cells/well in 384-well plate. 24 hours later, the medium was removed, and the cells were pre-loaded at RT for 1 hour with 20 μL/w of Fluo-8 NW. Then 10 μL/w of test compounds and reference antagonist A438079 at 3×-concentration were injected with the FLIPRTETRA and the kinetic response over a period of five minutes was monitored. A second injection of 15 μL/w of 3× reference activator (Bz-ATP at EC80) was performed with the FLIPR TETRA and the signal of the emitted fluorescence was recorded for additional three minutes. All the experiment was carried out in a Low Divalent Cation Assay Buffer (0.3 mM Ca^2+ and 0 mM Mg^2+). The effect of the test compounds was measured as percent inhibition vs the reference antagonist and IC50 values were calculated accordingly. Here are reported the potency ranges as A, B, C and D, where A is <200 nM; B is 200 nM-1 μM, C is 1-10 μM, D is 10-30 μM.

mouseP2X7 = target: T2, mouseP2X7 (Mus musculus, UniProt Q9Z1M0); experiment: P2X7 channel calcium-influx assay (Fluo-8, FLIPR TETRA), mouse P2X7; conditions: HEK-293 cells stably transfected with P2X7; Bz-ATP at EC80; low divalent cation buffer; read-out: mouseP2X7 (activity range)
T2 construct: expressed in transfected cells; host or cells: HEK-293
T2 sequence (Q9Z1M0 1-595): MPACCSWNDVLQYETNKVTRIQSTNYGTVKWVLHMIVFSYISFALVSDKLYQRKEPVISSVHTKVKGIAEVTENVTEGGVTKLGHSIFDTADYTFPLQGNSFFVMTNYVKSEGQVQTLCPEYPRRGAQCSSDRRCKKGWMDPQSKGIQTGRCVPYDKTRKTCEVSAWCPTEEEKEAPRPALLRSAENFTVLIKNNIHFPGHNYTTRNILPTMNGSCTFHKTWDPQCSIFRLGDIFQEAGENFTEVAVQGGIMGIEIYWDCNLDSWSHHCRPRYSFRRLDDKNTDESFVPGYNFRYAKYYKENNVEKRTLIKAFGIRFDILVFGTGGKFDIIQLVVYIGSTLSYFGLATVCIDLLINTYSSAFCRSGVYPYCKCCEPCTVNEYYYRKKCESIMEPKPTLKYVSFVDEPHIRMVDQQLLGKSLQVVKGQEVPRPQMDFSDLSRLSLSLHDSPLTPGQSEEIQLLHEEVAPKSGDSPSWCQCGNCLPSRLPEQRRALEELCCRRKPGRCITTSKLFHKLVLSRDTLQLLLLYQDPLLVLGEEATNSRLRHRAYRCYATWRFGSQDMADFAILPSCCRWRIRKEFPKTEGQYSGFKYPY
Experimental: as §1, §2

humanP2X7 = target: T3, humanP2X7 (Homo sapiens, UniProt Q99572); experiment: P2X7 channel calcium-influx assay (Fluo-8, FLIPR TETRA), human P2X7; conditions: HEK-293 cells stably transfected with P2X7; Bz-ATP at EC80; low divalent cation buffer; read-out: humanP2X7 (activity range)
T3 construct: expressed in transfected cells; host or cells: HEK-293
T3 sequence (Q99572 1-595): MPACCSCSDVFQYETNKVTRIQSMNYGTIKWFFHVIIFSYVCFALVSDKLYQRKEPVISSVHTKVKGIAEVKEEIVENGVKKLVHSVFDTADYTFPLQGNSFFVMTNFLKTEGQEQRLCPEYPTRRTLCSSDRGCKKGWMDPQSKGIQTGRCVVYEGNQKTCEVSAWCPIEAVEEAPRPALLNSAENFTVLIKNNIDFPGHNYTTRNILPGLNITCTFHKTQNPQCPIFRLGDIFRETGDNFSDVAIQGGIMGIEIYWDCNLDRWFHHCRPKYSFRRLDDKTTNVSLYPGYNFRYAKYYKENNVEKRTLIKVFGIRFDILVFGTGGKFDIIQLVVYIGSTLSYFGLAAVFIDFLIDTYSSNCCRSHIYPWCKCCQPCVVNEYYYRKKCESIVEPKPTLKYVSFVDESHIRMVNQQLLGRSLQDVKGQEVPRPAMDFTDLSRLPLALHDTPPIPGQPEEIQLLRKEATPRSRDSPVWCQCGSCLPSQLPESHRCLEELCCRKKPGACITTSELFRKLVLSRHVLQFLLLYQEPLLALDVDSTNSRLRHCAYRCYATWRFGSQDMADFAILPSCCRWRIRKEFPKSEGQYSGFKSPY
Experimental: as §1, §2

human P2X7 channel = target: T4, human P2X7 channel (Homo sapiens, UniProt Q99572); experiment: human P2X7 channel assay by automated patch-clamp (QPatch 16X); conditions: HEK-293 cells expressing P2X7; current evoked by 100 microM BzATP; whole-cell, held at -80 mV; read-out: human Q-Patch (activity range)
T4 construct: expressed in transfected cells; host or cells: HEK-293
T4 sequence (Q99572 1-595): T3 sequence (Q99572 1-595)
Experimental: In order to directly monitor the block of P2X7 channel, an electrophysiological assay was developed and implemented on the QPatchl6X automated electrophysiology instrument.
HEK-293 cells expressing the P2X7 channels were cultured in modified EMEM.
72 hours before experiment, 5 million cells were seeded onto T225 flasks. Just before the experiment cells were washed twice, detached from the flask with trypsin-EDTA, re-suspended in the suspension solution and placed on the QPatch 16x.
The compounds (20 mM in a 100% DMSO) stored at −20° C. were prepared the day of the experiment (a first dilution 1:20 in 100% DMSO to prepare a 1 mM stock solution, then a 1 microM solution in external solution+a serial dilution 1:10).
The standard whole-cell voltage clamp experiments were performed at room temperature. From these experiments the multihole technology was used and the data were sampled at 2 KHz.
The intracellular solution contained (mM) 135 CsF, 10 NaCl, 1 EGTA, 10 HEPES, (pH 7.2 with CsOH) whereas the extracellular contained (mM) 145 NaCl, 4 KCl, 0.5 MgCl2, 1 CaCl2, 10 HEPES, 10 Glc (pH 7.4 with NaOH).
After establishment of the seal and the passage in the whole cell configuration, the cells were held at −80 mV. The P2XR7 current was evoked by applying 100 microM of BzATP alone (4 times) and then in the presence increasing concentrations of the compound under investigation (1, 10, 100 and 1000 nM).
The pre-incubation periods 5 to 8 contain increasing concentrations of the compound of interest (1, 10, 100 and 1000 nM), as illustrated in FIGURE (application protocol).
The maximal inward current evoked by BzATP in absence or presence of increasing concentrations of the compounds under investigation was measured and normalized. The potential […] effect was measured as % of control and as IC50 determined fitting the dose-response curves data with the following equation:
Here are reported the potency ranges as A, B, C and D, where A is <10 nM; B is 10 nM-100 nM, C is 0.1-1 μM, D is 1-10 μM.

Row | Compound | IC50 (ratP2X7) | IC50 (mouseP2X7) | IC50 (humanP2X7) | IC50 (human P2X7 channel)
1 | Cn1nc(Cc2ccccc2C(F)(F)F)n(CC2CCCCCC2)c1=O [Example 28, 4-(cycloheptylmethyl)-2-methyl-5-(2-(trifluoromethyl)benzyl)-2,4-dihydro-3H-1,2,4-triazol-3-one] | < 200 nM | 1 to 10 µM | 200 to 1000 nM | 100 to 1000 nM
2 | Cn1nc(Cc2ccc(F)cc2)n(Cc2cc(-c3ncc(F)cn3)ccc2Cl)c1=O [Example 29, 4-(2-chloro-5-(5-fluoropyrimidin-2-yl)benzyl)-5-(4-fluorobenzyl)-2-methyl-2,4-dihydro-3H-1,2,4-triazol-3-one] | 10000 to 30000 nM | 10 to 30 µM | 10000 to 30000 nM | 1000 to 10000 nM
3 | Cn1nc(Cc2c(F)cccc2Cl)n(CCN2CCOCC2(C)C)c1=O [Example 30, 5-(2-chloro-6-fluorobenzyl)-4-(2-(3,3-dimethylmorpholino)ethyl)-2-methyl-2,4-dihydro-3H-1,2,4-triazol-3-one] | 1000 to 10000 nM | 10 to 30 µM | 1000 to 10000 nM | 1000 to 10000 nM
4 | Cc1ncccc1Cn1c(CC2CCCCC2)nn(C)c1=O [Example 31, 5-(cyclohexylmethyl)-2-methyl-4-((2-methylpyridin-3-yl)methyl)-2,4-dihydro-3H-1,2,4-triazol-3-one] | 1000 to 10000 nM | 10 to 30 µM | 1000 to 10000 nM | 100 to 1000 nM
5 | Cn1nc(Cc2ccccc2F)n(CC2CCCCC2(C)C)c1=O (stereo not shown) [Example 32, 4-((2,2-dimethylcyclohexyl)methyl)-5-(2-fluorobenzyl)-2-methyl-2,4-dihydro-3H-1,2,4-triazol-3-one] | < 200 nM | 1 to 10 µM | 1000 to 10000 nM | 1000 to 10000 nM
6 | Cn1nc(Cc2c(F)cccc2Cl)n(CC2CCCCC2(C)C)c1=O (stereo not shown) [Example 33, 5-(2-chloro-6-fluorobenzyl)-4-((2,2-dimethylcyclohexyl)methyl)-2-methyl-2,4-dihydro-3H-1,2,4-triazol-3-one] | < 200 nM | 0.2 to 1 µM | < 200 nM | 10 to 100 nM
7 | CCn1nc(Cc2c(F)cccc2Cl)n(CC2CCC(F)(F)CC2)c1=O [Example 34, 5-(2-chloro-6-fluorobenzyl)-4-((4,4-difluorocyclohexyl)methyl)-2-ethyl-2,4-dihydro-3H-1,2,4-triazol-3-one] | < 200 nM | < 0.2 µM | < 200 nM | 10 to 100 nM
